How the values were obtained:
KDM3B (JMJD1B) = target: T1, KDM3B (JMJD1B) (Homo sapiens, UniProt Q7LBC6); test: Histone lysine demethylase AlphaLISA assay, KDM3B; assay type: biochemical; conditions: read-out: KDM3B HDME Inhibition IC50
T1 construct: 842-1761; host or cells: Bac (baculovirus system)
T1 sequence (Q7LBC6 842-1761): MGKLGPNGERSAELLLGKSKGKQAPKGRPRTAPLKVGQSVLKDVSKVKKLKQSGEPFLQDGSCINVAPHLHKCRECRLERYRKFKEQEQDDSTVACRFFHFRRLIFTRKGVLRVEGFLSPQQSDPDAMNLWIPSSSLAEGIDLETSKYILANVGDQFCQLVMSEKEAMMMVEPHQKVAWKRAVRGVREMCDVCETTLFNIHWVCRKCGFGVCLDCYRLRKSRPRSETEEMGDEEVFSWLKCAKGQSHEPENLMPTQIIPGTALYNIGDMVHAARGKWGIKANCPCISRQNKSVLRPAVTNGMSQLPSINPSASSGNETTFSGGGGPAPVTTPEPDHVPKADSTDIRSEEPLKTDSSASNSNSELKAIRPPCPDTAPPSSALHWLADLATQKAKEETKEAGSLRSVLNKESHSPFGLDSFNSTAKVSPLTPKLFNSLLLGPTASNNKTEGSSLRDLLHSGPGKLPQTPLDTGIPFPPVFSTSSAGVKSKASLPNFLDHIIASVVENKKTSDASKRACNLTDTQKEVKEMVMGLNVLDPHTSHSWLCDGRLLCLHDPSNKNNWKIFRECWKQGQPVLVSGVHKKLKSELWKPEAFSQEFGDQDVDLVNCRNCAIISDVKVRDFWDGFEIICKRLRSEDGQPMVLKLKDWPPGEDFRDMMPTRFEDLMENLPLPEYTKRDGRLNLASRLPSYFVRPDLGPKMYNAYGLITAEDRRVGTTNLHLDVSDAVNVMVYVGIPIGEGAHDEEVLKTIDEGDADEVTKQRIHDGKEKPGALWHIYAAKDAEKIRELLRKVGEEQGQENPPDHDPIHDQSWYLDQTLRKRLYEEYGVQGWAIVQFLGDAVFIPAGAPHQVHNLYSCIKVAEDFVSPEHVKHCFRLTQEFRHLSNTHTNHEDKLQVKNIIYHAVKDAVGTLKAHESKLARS
Procedure, shortened: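 Each enzyme was pre-incubated 10 min in buffer, then 10 min with compound in 3% DMSO solution. The reaction started with biotinylated histone H3 peptide substrate plus 25 μM L-ascorbate and 10 μM α-KG at room temperature. Detection used AlphaLISA acceptor beads, then streptavidin donor beads, in the dark.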

KDM4C = target: T2, KDM4C (Homo sapiens, UniProt Q9H3R0); test: Histone lysine demethylase immunofluorescence assay, U2OS cells transfected with KDM4C; assay type: cell-based; conditions: U2OS cells transfected with pCMVHA KDM4C; mark detected H3K9me3; 20 hours
T2 construct: Full length; host or cells: U2OS
T2 sequence (Q9H3R0 1-1056): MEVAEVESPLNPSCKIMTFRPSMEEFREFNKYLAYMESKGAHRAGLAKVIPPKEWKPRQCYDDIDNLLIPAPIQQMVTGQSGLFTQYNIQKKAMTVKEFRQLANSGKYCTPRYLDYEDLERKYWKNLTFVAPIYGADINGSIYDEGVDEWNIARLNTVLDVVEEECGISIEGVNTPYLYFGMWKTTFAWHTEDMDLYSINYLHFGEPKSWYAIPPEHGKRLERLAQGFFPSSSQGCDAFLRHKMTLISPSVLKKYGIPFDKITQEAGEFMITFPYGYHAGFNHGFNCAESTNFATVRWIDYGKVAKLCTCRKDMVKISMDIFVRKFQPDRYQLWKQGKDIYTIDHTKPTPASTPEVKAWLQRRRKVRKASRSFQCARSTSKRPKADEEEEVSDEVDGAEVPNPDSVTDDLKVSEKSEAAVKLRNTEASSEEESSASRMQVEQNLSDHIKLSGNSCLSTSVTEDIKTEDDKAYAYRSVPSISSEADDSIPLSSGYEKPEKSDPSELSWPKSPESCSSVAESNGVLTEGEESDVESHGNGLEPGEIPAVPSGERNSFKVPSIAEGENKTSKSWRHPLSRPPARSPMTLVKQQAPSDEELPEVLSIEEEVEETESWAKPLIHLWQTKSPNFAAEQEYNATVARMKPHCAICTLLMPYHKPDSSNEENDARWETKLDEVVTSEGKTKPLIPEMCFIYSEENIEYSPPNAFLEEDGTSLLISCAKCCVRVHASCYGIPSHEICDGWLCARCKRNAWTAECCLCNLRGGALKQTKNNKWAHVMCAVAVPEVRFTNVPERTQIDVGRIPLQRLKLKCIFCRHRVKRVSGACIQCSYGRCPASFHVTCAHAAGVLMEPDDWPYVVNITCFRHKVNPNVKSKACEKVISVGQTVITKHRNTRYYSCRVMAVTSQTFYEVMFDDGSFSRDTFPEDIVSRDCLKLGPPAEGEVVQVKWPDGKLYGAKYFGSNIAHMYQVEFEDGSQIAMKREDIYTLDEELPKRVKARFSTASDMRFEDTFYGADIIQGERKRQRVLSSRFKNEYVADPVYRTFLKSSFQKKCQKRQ
Procedure, shortened: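 U2OS cells were transiently transfected with HA-tagged demethylase and reseeded after 6 h into compound-containing DMEM/10% FBS for 20 h. Cells were fixed in formaldehyde and immunostained for HA and the relevant histone methyl mark, then imaged. IC50 is based on mean mark staining in HA+ transfected cells.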

Row | IC50 (KDM3B (JMJD1B)) [nM] | IC50 (KDM4C) [nM] | SMILES
1 | > 2500 | > 2500 | CON=Cc1ccnc(CNCCCN(C)C)c1 [Compound 64, [3-(dimethylamino)-propyl]({4-[(methoxyimino)-methyl]pyridin-2-yl}methyl)amine]
2 | > 2500 | > 2500 | CCN(CC)CCCCNCc1cc(C2NCCN2C)ccn1 (stereo not drawn) [Compound 65, [4-(diethylamino)-butyl]({[4-(1-methylimidazolidin-2-yl)pyridin-2-yl]methyl})amine]
3 | > 2500 | 250 to 2500 | CCN(CCN(C)C)C(=O)CNCc1cc(/C=N/CCO)ccn1 [Compound 66]
4 | > 2500 | 250 to 2500 | CCN(CC)CCCCNCc1cc(/C=N\CCC2CCCCC2)ccn1 [Compound 67, (2-cyclohexylethyl)-({[2-({[4-(diethylamino)-butyl]amino}methyl)pyridin-4-yl]methylidene})-amine]
5 | > 2500 | 250 to 2500 | CN(C)CC1CCC(CNCc2cc(C=O)ccn2)CC1 (stereo not drawn) [Compound 97, 2-{[({4-[(dimethylamino)-methyl]cyclohexyl}-methyl)amino]-methyl}pyridine-4-carbaldehyde]
6 | > 2500 | 250 to 2500 | CN(C)C/C=C/CNCc1cc(C=O)ccn1 [Compound 98, 2-({[(2E)-4-(dimethylamino)but-2-en-1-yl]amino}-methyl)pyridine-4-carbaldehyde]
7 | > 2500 | > 2500 | CN(C)C/C=C\CNCc1cc(C=O)ccn1 [Compound 99, 2-({[(2Z)-4-(dimethylamino)-but-2-en-1-yl]amino}methyl)-pyridine-4-carbaldehyde]
8 | > 2500 | 250 to 2500 | CN1CCC(CNCc2cc(C=O)ccn2)CC1 [Compound 100, 2-({[(1-methyl-piperidin-4-yl)methyl]amino}-methyl)pyridine-4-carbaldehyde]
9 | > 2500 | 250 to 2500 | CCN(CCN(C)C)C(=O)CNCc1cc(C=O)ccn1 [Compound 101]
10 | > 2500 | 250 to 2500 | O=Cc1ccnc(CNCC(=O)N2CCC[C@@H]2CN2CCCC2)c1 [Compound 102, 2-[({2-oxo-2-[(2R)-2-(pyrrolidin-1-ylmethyl)pyrrolidin-1-yl]ethyl}amino)-methyl]pyridine-4-carbaldehyde]
11 | > 2500 | > 2500 | CN1CCN(C(=O)CNCc2cc(C=O)ccn2)CC1 [Compound 103, 2-({[2-(4-methylpiperazin-1-yl)-2-oxoethyl]-amino}methyl)-pyridine-4-carbaldehyde]
12 | > 2500 | > 2500 | CCN1CCCC1CNC(=O)CNCc1cc(C=O)ccn1 (stereo not drawn) [Compound 104, N-[(1-ethylpyrrolidin-2-yl)methyl]-2-{[(4-formylpyridin-2-yl)methyl]amino}-acetamide]
13 | > 2500 | > 2500 | CCN(CC)C(=O)CNCc1cc(C=O)ccn1 [Compound 105, N,N-diethyl-2-{[(4-formylpyridin-2-yl)methyl]amino}-acetamide]
14 | > 2500 | > 2500 | O=Cc1ccnc(CNCC(=O)N2CCC(Cc3ccccc3)CC2)c1 [Compound 106, 2-({[2-(4-benzylpiperidin-1-yl)-2-oxoethyl]-amino}methyl)-pyridine-4-carbaldehyde]
15 | > 2500 | 250 to 2500 | CCN(CC)CCCCNCc1cc(C=O)ccn1 [Compound 107, 2-({[4-(diethylamino)-butyl]amino}-methyl)pyridine-4-carbaldehyde]
16 | > 2500 | 250 to 2500 | CN(C)CCCCNCc1cc(C=O)ccn1 [Compound 108, 2-({[4-(dimethylamino)-butyl]amino}methyl)-pyridine-4-carbaldehyde]
17 | > 2500 | > 2500 | CN(C)CCNCc1cc(C=O)ccn1 [Compound 110, 2-({[2-(dimethylamino)-ethyl]amino}methyl)-pyridine-4-carbaldehyde]
18 | > 2500 | > 2500 | O=Cc1ccnc(CNCCCN2CCCC2)c1 [Compound 111, 2-({[3-(pyrrolidin-1-yl)propyl]amino}-methyl)pyridine-4-carbaldehyde]
19 | > 2500 | > 2500 | CCN(CC)CCCCNC(=O)CNCc1cc(C=O)ccn1 [Compound 112, N-[4-(diethylamino)-butyl]-2-{[(4-formylpyridin-2-yl)methyl]amino}-acetamide]
20 | > 2500 | > 2500 | CN(C)CCCCCNCc1cc(C=O)ccn1 [Compound 114, 2-({[5-(dimethylamino)-pentyl]amino}methyl)-pyridine-4-carbaldehyde]
21 | > 2500 | 250 to 2500 | CCN(CC)CCCCN(Cc1cc(C=O)ccn1)C(=O)C(F)(F)F [Compound 115, N-[4-(diethylamino)butyl]-2,2,2-trifluoro-N-[(4-formylpyridin-2-yl)methyl]acetamide]

From patent US9650339B2, “Inhibitors of histone demethylases” (Gilead Sciences, Inc., priority 2013, dated 2017)
